Laboratory results reported in patent US20140357633A1, “COMPOUNDS FOR INHIBITING THE INTERACTION OF BCL2 WITH BINDING PARTNERS” (NOVARTIS AG, priority 2011, published 2014).
Where “and” joins values, the source holds several entries; their conditions need not be identical. Identical values can stand only once.

Legend:
[1] = target: BCL-2 (binding to BAD peptide) (Homo sapiens, UniProt P10415); assay: SPR (Biacore) solution inhibition assay, BCL-2 binding to immobilized BAD peptide; conditions: biotinylated BAD peptide surface, 56 nM BCL-2, 25° C.; range = high and low IC50 values from multiple experiments; read-out: BCL2_SPR IC50 BAD
Chain of BCL-2 (binding to BAD peptide) (P10415 whole entry): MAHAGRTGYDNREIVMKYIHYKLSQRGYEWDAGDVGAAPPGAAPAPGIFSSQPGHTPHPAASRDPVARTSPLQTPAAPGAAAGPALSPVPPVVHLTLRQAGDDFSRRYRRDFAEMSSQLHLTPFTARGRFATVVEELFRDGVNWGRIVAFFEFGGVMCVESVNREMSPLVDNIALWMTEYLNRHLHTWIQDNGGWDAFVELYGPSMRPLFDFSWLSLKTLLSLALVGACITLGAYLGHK
Source text: (§1) The present method includes utility of a Surface plasmon resonance (SPR)-based biosensor (Biacore™′ GE Healthcare, Uppsala, Sweden) to characterize BCL-2 inhibitors.
(§2) Biacore™ utilizes the phenomenon of surface plasmon resonance (SPR) to detect and measure binding interactions. In a typical Biacore experiment, one of the interacting molecules (ligand) is immobilized on a flexible dextran matrix while the interacting partner (analyte) is allowed to flow across that surface. A binding interaction results in an increase in mass on the sensor surface and a corresponding direct change in the refractive index of the medium in the vicinity of the sensor surface. Changes in refractive index or signal are recorded in resonance units (R.U.) Signal changes due to association and dissociation of complexes are monitored in a non-invasive manner, continuously and in real-time, the results of which are reported in the form of a sensorgram.
(§3) The SPR assay is configured to examine solution inhibition of BCL-2 binding to peptide derivatized sensor surfaces to generate IC50 values as a measure of inhibitor potency.
(§4) Biacore™ A100 (GE Healthcare, Uppsala, Sweden) was used to conduct all experiments reported herein. Sensor surface preparation and all interaction analyses experiments were performed at 25° C. Reagents were purchased from GE Healthcare. Running buffer containing 10 mM Hepes, pH7.4, 150 mM sodium chloride, 1.25 mM Dithiothreitol, 3% Dimethyl sulfoxide and 0.05% polysorbate 20 were utilized throughout all analyses.
(§5) Biotinylated BAK, BAD and NOXA peptides were diluted to 10 nM in running buffer and captured onto a sensor surface pre-derivatized with streptavidin (sensor chip SA) to peptide surface densities in the range 50-100 R.U. Peptide captured surfaces were blocked with 500 μM PEO2-Biotin.
(§6) Interaction analyses were performed by first equilibrating each sample within a 6 point three fold compound dilution series in the range 16 μM to […] with 56 nM BCL-2 for one hour during instrument start-up procedures. Protein compound mixtures were then injected over each peptide surface in parallel for 60 seconds at a flow-rate of 30 μL/min. 56 nM BCL-2 control samples were also prepared and run at regular intervals during the assay. Surface regeneration was performed at the end of each analysis cycle by two 30 second injections of 10 mM Glycine, pH 2.5, 1M Sodium Chloride, 0.05% polysorbate 20. Samples and control compound samples were run in duplicate and controls are also run at regular intervals during the assay to monitor surface and assay performance.
(§7) Data analyses are carried out using Biacore™ A100 evaluation software v1.1 to validate assay quality. Binding level report points were used relative to BCL-2 control samples to calculate % inhibition values for each compound protein mixture. […] The range of data shown in table 1 represents the high and low IC50 values obtained from multiple experiments.

[2] = target: BCL-2 (binding to BAK peptide) (Homo sapiens, UniProt P10415); assay: SPR (Biacore) solution inhibition assay, BCL-2 binding to immobilized BAK peptide; conditions: biotinylated BAK peptide surface, 56 nM BCL-2, 25° C.; range = high and low IC50 values from multiple experiments; read-out: BCL2_SPR IC50 BAK
Chain of BCL-2 (binding to BAK peptide) (P10415 whole entry): as above
Source text: as §1, §2, §3, §4, §5, §6, §7

CCCCN(CCCC)C(=O)c1cc(C)n(-c2ccc(NC(=O)Cc3ccc(F)cc3Cl)cc2C(=O)N2Cc3ccccc3C[C@H]2CO)n1 [Example 158]
IC50 [1]: 537 to 546 nM
IC50 [2]: 436 to 500 nM

CCCCN(CCCC)C(=O)c1cc(C)n(-c2ccc(NC(=O)C(Cc3ccccc3)(Cc3ccccc3)C(=O)O)cc2C(=O)N2Cc3ccccc3C[C@H]2CO)n1 [Example 26]
IC50 [1]: 46 to 63.1 nM
IC50 [2]: 43.7 to 54.5 nM

CCCCN(CCCC)C(=O)c1cc(C)n(-c2ccc(NC(=O)C(CC(=O)OC)c3ccccc3)cc2C(=O)N2Cc3ccccc3C[C@H]2CO)n1 (stereo partly shown) [Example 6]
IC50 [1]: 120 to 121 nM
IC50 [2]: 105 to 107 nM

CCCCN(CCCC)C(=O)c1cc(C)n(-c2ccc(NC(=O)Cc3ccccc3F)cc2C(=O)N2Cc3ccccc3C[C@H]2CO)n1 [Example 57]
IC50 [1]: 77.3 to 79.6 nM
IC50 [2]: 63.1 to 66.9 nM

CCCCN(CCCC)C(=O)c1cc(C)n(-c2ccc(NC(=O)Cc3ccc(OC)c(Br)c3)cc2C(=O)N2Cc3ccccc3C[C@H]2CO)n1 [Example 131]
IC50 [1]: 27.8 to 36.6 nM
IC50 [2]: 23.3 to 30.8 nM

CCCCN(CCCC)C(=O)c1cc(C)n(-c2ccc(NC(=O)C3CC(=O)N(c4ccc(OCC)cc4)C3)cc2C(=O)N2Cc3ccccc3C[C@H]2CO)n1 (stereo partly shown) [Example 115]
IC50 [1]: 180 to 204 nM
IC50 [2]: 153 to 154 nM

CCCCN(CCCC)C(=O)c1cc(C)n(-c2ccc(NC(=O)c3ccccc3Oc3ccccc3)cc2C(=O)N2Cc3ccccc3C[C@H]2CO)n1 [Example 68]
IC50 [1]: 122 to 125 nM
IC50 [2]: 100 to 103 nM

CCCCN(CCCC)C(=O)c1cc(C)n(-c2ccc(NC(=O)C(C)CC(=O)O)cc2C(=O)N2Cc3ccccc3C[C@H]2CO)n1 (stereo partly shown) [Example 37]
IC50 [1]: 172 to 174 nM
IC50 [2]: 127 to 129 nM

CCCCN(CCCC)C(=O)c1cc(C)n(-c2ccc(NC(=O)Cc3ccc(OC)c(OC)c3)cc2C(=O)N2Cc3ccccc3C[C@H]2CO)n1 [Example 136]
IC50 [1]: 119 to 123 nM
IC50 [2]: 95.4 to 98.2 nM

CCCCN(CCCC)C(=O)c1cc(C)n(-c2ccc(NC(=O)c3cc(C)[nH]n3)cc2C(=O)N2Cc3ccccc3C[C@H]2CO)n1 [Example 109]
IC50 [1]: 477 to 528 nM
IC50 [2]: 505 to 525 nM

CCCCN(CCCC)C(=O)c1cc(C)n(-c2ccc(NC(=O)c3cc(F)ccc3C(F)(F)F)cc2C(=O)N2Cc3ccccc3C[C@H]2CO)n1 [Example 145]
IC50 [1]: 1670 nM and 1170 to 1220 nM
IC50 [2]: 1250 to 1270 nM and 964 to 1220 nM

CCCCN(CCCC)C(=O)c1cc(C)n(-c2ccc(NC(=O)C3CC(=O)N(Cc4ccccc4)C3)cc2C(=O)N2Cc3ccccc3C[C@H]2CO)n1 (stereo partly shown) [Example 101]
IC50 [1]: 130 to 167 nM
IC50 [2]: 114 to 150 nM

CCCCN(CCCC)C(=O)c1cc(C)n(-c2ccc(NC(=O)COc3cccc(OC)c3)cc2C(=O)N2Cc3ccccc3C[C@H]2CO)n1 [Example 22]
IC50 [1]: 3450 nM
IC50 [2]: 2620 to 3490 nM

CCCCN(CCCC)C(=O)c1cc(C)n(-c2ccc(NC(=O)Cc3cccc(Cl)c3)cc2C(=O)N2Cc3ccccc3C[C@H]2CO)n1 [Example 76]
IC50 [1]: 59.8 to 59.9 nM
IC50 [2]: 50.5 to 51.3 nM

CCCCN(CCCC)C(=O)c1cc(C)n(-c2ccc(NC(=O)c3oc(C)nc3C)cc2C(=O)N2Cc3ccccc3C[C@H]2CO)n1 [Example 108]
IC50 [1]: 1020 to 1120 nM and 691 to 730 nM
IC50 [2]: 629 to 841 nM and 429 to 430 nM

CCCCN(CCCC)C(=O)c1cc(C)n(-c2ccc(NC(=O)Cc3c(F)cccc3Cl)cc2C(=O)N2Cc3ccccc3C[C@H]2CO)n1 [Example 159]
IC50 [1]: 574 to 596 nM
IC50 [2]: 409 to 430 nM

CCCCN(CCCC)C(=O)c1cc(C)n(-c2ccc(NC(=O)C3CC(=O)N(Cc4ccccc4Cl)C3)cc2C(=O)N2Cc3ccccc3C[C@H]2CO)n1 (stereo partly shown) [Example 41]
IC50 [1]: 96.4 to 97.6 nM
IC50 [2]: 75.4 to 83.3 nM

CCCCN(CCCC)C(=O)c1cc(C)n(-c2ccc(NC(=O)c3cc(S(N)(=O)=O)ccc3OC)cc2C(=O)N2Cc3ccccc3C[C@H]2CO)n1 [Example 71]
IC50 [1]: 93.5 to 99.9 nM
IC50 [2]: 72 to 74.7 nM

CCCCN(CCCC)C(=O)c1cc(C)n(-c2ccc(NC(=O)COc3ccccc3C#N)cc2C(=O)N2Cc3ccccc3C[C@H]2CO)n1 [Example 66]
IC50 [1]: 142 nM
IC50 [2]: 106 to 116 nM

CCCCN(CCCC)C(=O)c1cc(C)n(-c2ccc(NC(=O)c3cc(C(C)C)nn3C)cc2C(=O)N2Cc3ccccc3C[C@H]2CO)n1 [Example 47]
IC50 [1]: 522 to 594 nM
IC50 [2]: 586 to 600 nM

CCCCN(CCCC)C(=O)c1cc(C)n(-c2ccc(NC(=O)c3oc4ccccc4c3C)cc2C(=O)N2Cc3ccccc3C[C@H]2CO)n1 [Example 80]
IC50 [1]: 908 to 1110 nM
IC50 [2]: 1030 to 1070 nM

CCCCN(CCCC)C(=O)c1cc(C)n(-c2ccc(NC(=O)c3cn4cc(Cl)ccc4n3)cc2C(=O)N2Cc3ccccc3C[C@H]2CO)n1 [Example 43]
IC50 [1]: 527 to 597 nM
IC50 [2]: 416 to 491 nM

CCCCN(CCCC)C(=O)c1cc(C)n(-c2ccc(NC(=O)Cc3ccc(OC)c(C)c3)cc2C(=O)N2Cc3ccccc3C[C@H]2CO)n1 [Example 95]
IC50 [1]: 148 to 155 nM
IC50 [2]: 107 to 108 nM

CCCCN(CCCC)C(=O)c1cc(C)n(-c2ccc(NC(=O)C3Oc4cc5ccccc5cc4O3)cc2C(=O)N2Cc3ccccc3C[C@H]2CO)n1 [Example 67]
IC50 [1]: 48.9 to 52.7 nM
IC50 [2]: 43.1 to 46 nM

CCCCN(CCCC)C(=O)c1cc(C)n(-c2ccc(NC(=O)CC3NC(=O)NC3=O)cc2C(=O)N2Cc3ccccc3C[C@H]2CO)n1 (stereo partly shown) [Example 111]
IC50 [1]: 763 to 799 nM
IC50 [2]: 553 to 566 nM

CCCCN(CCCC)C(=O)c1cc(C)n(-c2ccc(NC(=O)Cc3ccc(O)cc3)cc2C(=O)N2Cc3ccccc3C[C@H]2CO)n1 [Example 157]
IC50 [1]: 80.3 to 93.4 nM
IC50 [2]: 64.7 to 75.3 nM

CCCCN(CCCC)C(=O)c1cc(C)n(-c2ccc(NC(=O)Cc3cccnc3)cc2C(=O)N2Cc3ccccc3C[C@H]2CO)n1 [Example 118]
IC50 [1]: 164 to 171 nM
IC50 [2]: 139 to 153 nM

CCCCN(CCCC)C(=O)c1cc(C)n(-c2ccc(NC(=O)C(C)c3noc4ccccc34)cc2C(=O)N2Cc3ccccc3C[C@H]2CO)n1 (stereo partly shown) [Example 161]
IC50 [1]: 3070 to 3910 nM
IC50 [2]: 1330 to 1560 nM

CCCCN(CCCC)C(=O)c1cc(C)n(-c2ccc(NC(=O)Cc3ccc4ccccc4c3)cc2C(=O)N2Cc3ccccc3C[C@H]2CN)n1 [Example 54]
IC50 [1]: 66.9 to 67.7 nM and 69.8 to 79.8 nM
IC50 [2]: 58.1 to 59.3 nM and 58.9 to 68.8 nM

CCCCN(CCCC)C(=O)c1cc(C)n(-c2ccc(NC(=O)c3csc(N4CCOCC4)n3)cc2C(=O)N2Cc3ccccc3C[C@H]2CO)n1 [Example 122]
IC50 [1]: 317 to 325 nM
IC50 [2]: 237 to 257 nM

CCCCN(CCCC)C(=O)c1cc(C)n(-c2ccc(NC(=O)c3ccc(NS(=O)(=O)Cc4ccccc4)cc3)cc2C(=O)N2Cc3ccccc3C[C@H]2CO)n1 [Example 143]
IC50 [1]: 455 to 539 nM
IC50 [2]: 426 to 594 nM

CCCCN(CCCC)C(=O)c1cc(C)n(-c2ccc(NC(=O)c3ccc4c(C)c(C)[nH]c4c3)cc2C(=O)N2Cc3ccccc3C[C@H]2CO)n1 [Example 86]
IC50 [1]: 611 to 628 nM
IC50 [2]: 432 to 440 nM

CCCCN(CCCC)C(=O)c1cc(C)n(-c2ccc(NC(=O)Cc3ccc(OC)c(F)c3)cc2C(=O)N2Cc3ccccc3C[C@H]2CO)n1 [Example 97]
IC50 [1]: 201 to 210 nM
IC50 [2]: 146 to 168 nM

CCCCN(CCCC)C(=O)c1cc(C)n(-c2ccc(NC(C)=O)cc2C(=O)N2Cc3ccccc3C[C@H]2CO)n1 [Example 13]
IC50 [1]: 776 to 791 nM
IC50 [2]: 462 to 478 nM

CCCCN(CCCC)C(=O)c1cc(C)n(-c2ccc(NC(=O)Cc3ccc(OC)c(Cl)c3)cc2C(=O)N2Cc3ccccc3C[C@H]2CO)n1 [Example 96]
IC50 [1]: 86.2 to 91.5 nM
IC50 [2]: 71.2 to 76 nM

CCCCN(CCCC)C(=O)c1cc(C)n(-c2ccc(NC(=O)c3cccc(Cl)c3O)cc2C(=O)N2Cc3ccccc3C[C@H]2CO)n1 [Example 83]
IC50 [1]: 81.6 to 89.1 nM
IC50 [2]: 65.3 to 69.7 nM

CCCCN(CCCC)C(=O)c1cc(C)n(-c2ccc(NC(=O)COc3cc(Cl)c(Cl)cc3Cl)cc2C(=O)N2Cc3ccccc3C[C@H]2CO)n1 [Example 127]
IC50 [1]: 131 to 138 nM
IC50 [2]: 106 to 108 nM

CCCCN(CCCC)C(=O)c1cc(C)n(-c2ccc(NC(=O)C(CC(N)=O)c3ccccc3)cc2C(=O)N2Cc3ccccc3C[C@H]2CO)n1 (stereo partly shown) [Example 117]
IC50 [1]: 82.1 to 88.8 nM
IC50 [2]: 67.5 to 71.4 nM

CCCCN(CCCC)C(=O)c1cc(C)n(-c2ccc(NC(=O)COc3ccc(OC)cc3)cc2C(=O)N2Cc3ccccc3C[C@H]2CO)n1 [Example 24]
IC50 [1]: 8620 to 11900 nM
IC50 [2]: 6420 to 8640 nM

CCCCN(CCCC)C(=O)c1cc(C)n(-c2ccc(NC(=O)c3cc(OC)cc([N+](=O)[O-])c3OC)cc2C(=O)N2Cc3ccccc3C[C@H]2CO)n1 [Example 132]
IC50 [1]: 332 to 338 nM
IC50 [2]: 246 to 248 nM

CCCCN(CCCC)C(=O)c1cc(C)n(-c2ccc(NC(=O)c3cn4ccsc4n3)cc2C(=O)N2Cc3ccccc3C[C@H]2CO)n1 [Example 102]
IC50 [1]: 364 to 394 nM
IC50 [2]: 268 nM
